In patent publication US4525473A, “Cephalosporins” (Bristol-Myers Company, priority 1983, dated 1985):
Values after ≈ are worked out from the molar mass of the structure shown. Where two headings read alike, the source gives them in different places.

Key:
Format in all cases: cell-based
PCresistant S. aureus = test: MIC by two-fold serial agar dilution in Mueller-Hinton agar, Gp-Ib; settings: Staphylococcus aureus, read-out: Geometric Mean of MIC
Protocol: (§1) In the primary evaluation of the compounds of this invention, the Minimum Inhibitory Concentrations (MIC's) of the compounds were determined by the two-fold serial agar dilution method in Mueller-Hinton agar against 32 strains of test organisms in six groups.
GpIb: PCresistant S. aureus

P. aeruginosa = test: MIC by two-fold serial agar dilution in Mueller-Hinton agar, Gn-III; settings: Pseudomonas aeruginosa, read-out: Geometric Mean of MIC
Protocol: as §1

[1] = tested on: CETresistant E. coli (3) and K. pneumoniae (2); test: MIC by two-fold serial agar dilution in Mueller-Hinton agar, Gn-Ib; settings: Escherichia coli, read-out: Geometric Mean of MIC
Protocol: as §1
GnIb: CETresistant E. coli (3) and K. pneumoniae (2)

[2] = tested on: Cephalothin(CET)sensitive E. coli (2 strains), K. pneumoniae (1) and P. mirabilis (2); test: MIC by two-fold serial agar dilution in Mueller-Hinton agar, Gn-Ia; settings: read-out: Geometric Mean of MIC
Protocol: as §1
GnIa: Cephalothin(CET)sensitive E. coli (2 strains), K. pneumoniae (1) an […]

[3] = tested on: M. morganii (1), E. cloacae (2) and S. marcescens (2); test: MIC by two-fold serial agar dilution in Mueller-Hinton agar, Gn-II; settings: read-out: Geometric Mean of MIC
Protocol: as §1
GnII: M. morganii (1), E. cloacae (2) and S. marcescens (2)

[4] = tested on: Penicillin(PC)sensitive S. aureus; test: MIC by two-fold serial agar dilution in Mueller-Hinton agar, Gp-Ia; settings: Staphylococcus aureus
Protocol: as §1
Gp-Ia: Penicillin(PC)sensitive S. aureus

[5] = Gp-Ib, 5 strains, PC-resistant S. aureus
[6] = Gn-Ia, 5 strains, CET-sensitive
[7] = Gp-Ia, 5 strains, PC-sensitive S. aureus, read-out: Geometric Mean of MIC
[8] = Gn-Ib, 5 strains, CET-resistant
[9] = Gn-III, 7 strains, P. aeruginosa
[10] = read-out: Geometric Mean of MIC, Gp-Ia, 5 strains, PC-sensitive S. aureus

MIC [1, 8] [µg/mL] | Structure (SMILES) | MIC (PCresistant S. aureus; [5]) [µg/mL] | MIC (P. aeruginosa) [µg/mL] | MIC [1] [µg/mL] | MIC [2, 6] [µg/mL] | MIC [3] [µg/mL] | MIC [4, 7] [µg/mL] | MIC ([3]; Gn-II, 5 strains) [µg/mL] | MIC (P. aeruginosa; [9]) [µg/mL] | MIC [2] [µg/mL] | MIC [4, 10] [µg/mL] | MIC (PCresistant S. aureus) [µg/mL]
 | CO/N=C(\C(=O)NC1C(=O)N2C(C(=O)[O-])=C(C[N+]34CCN(CC3)CC4)CS[C@H]12)c1csc(N)n1 (stereo partly drawn) [Example 4, 7-[(Z)-2-(2-Aminothiazol-4-yl)-2-methoxyiminoacetamido]-3-(1,4-diazabicyclo[2,2,2]octan-1-io)methyl-3-cephem-4-carboxylate] | 5.8 (≈ 11.4 µM) | 3.6 (≈ 7.09 µM) | 0.16 (≈ 0.315 µM) | 0.07 (≈ 0.138 µM) | 0.8 (≈ 1.58 µM) | 2.9 (≈ 5.71 µM) |  |  |  |  | 
 | CO/N=C(\C(=O)NC1C(=O)N2C(C(=O)[O-])=C(C[N+]3(C)CCc4scnc4C3)CS[C@H]12)c1csc(N)n1 (stereo partly drawn) [Example 6, 7-[(Z)-2-(2-Aminothiazol-4-yl)-2-methoxyiminoacetamido]-3-(5-methyl-4,5,6,7-tetrahydro-5-thiazolo[4,5-c]pyridinio)methyl-3-cephem-4-carboxylate] | 3.2 (≈ 5.82 µM) |  | 0.15 (≈ 0.273 µM) |  | 0.4 (≈ 0.728 µM) | 0.9 (≈ 1.64 µM) |  | 4.2 (≈ 7.64 µM) | 0.025 (≈ 0.0455 µM) |  | 
0.13 (≈ 0.256 µM) | CO/N=C(\C(=O)NC1C(=O)N2C(C(=O)[O-])=C(C[N+]3(C)CCCCCC3)CS[C@H]12)c1csc(N)n1 (stereo partly drawn) [Example 7, 7-[(Z)-2-(2-Aminothiazol-4-yl)-2-methoxyiminoacetamido]-3-(1-methylhexahydroazepinio)methyl-3-cephem-4-carboxylate] | 3.2 (≈ 6.29 µM) |  |  | 0.05 (≈ 0.0983 µM) |  | 0.9 (≈ 1.77 µM) | 0.15 (≈ 0.295 µM) | 4.2 (≈ 8.26 µM) |  |  | 
 | CO/N=C(\C(=O)NC1C(=O)N2C(C(=O)[O-])=C(C[N+]3(C)CCC(O)C3)CS[C@H]12)c1csc(N)n1 (stereo partly drawn) [Example 9, 7-[(Z)-2-(2-Aminothiazol-4-yl)-2-methoxyiminoacetamido]-3-(3-hydroxy-1-methylpyrrolidinio)methyl-3-cephem-4-carboxylate] | 3.3 (≈ 6.65 µM) |  | 0.14 (≈ 0.282 µM) | 0.27 (≈ 0.544 µM) | 0.14 (≈ 0.282 µM) |  |  | 2.9 (≈ 5.84 µM) |  | 1.3 (≈ 2.62 µM) | 
 | CO/N=C(\C(=O)NC1C(=O)N2C(C(=O)[O-])=C(C[N+]3(C)CC=CC3)CS[C@H]12)c1csc(N)n1 (stereo partly drawn) [Example 11, 7-[(Z)-2-(2-Aminothiazol-4-yl)-2-methoxyiminoacetamido]-3-(1-methyl-3-pyrrolinio)methyl-3-cephem-4-carboxylate] | 2.1 (≈ 4.39 µM) | 2.5 (≈ 5.22 µM) | 0.17 (≈ 0.355 µM) | 0.019 (≈ 0.0397 µM) |  | 0.78 (≈ 1.63 µM) | 0.15 (≈ 0.313 µM) |  |  |  | 
0.13 (≈ 0.246 µM) | CO/N=C(\C(=O)NC1C(=O)N2C(C(=O)[O-])=C(C[N+]3(C)Cc4ccccc4C3)CS[C@H]12)c1csc(N)n1 (stereo partly drawn) [Example 14, 7-[(Z)-2-(2-Aminothiazol-4-yl)-2-methoxyiminoacetamido]-3-[(2-methyl-2-benzo[c]pyrrolinio)methyl]-3-cephem-4-carboxylate] | 1.7 (≈ 3.22 µM) |  |  | 0.042 (≈ 0.0795 µM) |  | 0.51 (≈ 0.965 µM) | 0.13 (≈ 0.246 µM) | 7.7 (≈ 14.6 µM) |  |  | 
 | CO/N=C(\C(=O)NC1C(=O)N2C(C(=O)[O-])=C(C[N+]3(C)CCc4nc(N)sc4C3)CSC12)c1csc(N)n1 (stereo not drawn) [Example 15, 7-[(Z)-2-(2-Aminothiazol-4-yl)-2-methoxyiminoacetamido]-3-[(2-amino-4,5,7-tetrahydro-6-methyl-6-thiazolo[5,4-c]pyridinio)methyl]-3-cephem-4-carboxylate] | 2.8 (≈ 4.96 µM) |  | 0.16 (≈ 0.283 µM) | 0.034 (≈ 0.0602 µM) |  |  | 0.18 (≈ 0.319 µM) | 4.6 (≈ 8.15 µM) |  | 1.1 (≈ 1.95 µM) | 
 | CO/N=C(\C(=O)NC1C(=O)N2C(C(=O)[O-])=C(C[N+]3(CC(=O)O)CCCC3)CS[C@H]12)c1csc(N)n1 (stereo partly drawn) [Example 16, 7-[(Z)-2-(2-Aminothiazol-4-yl)-2-methoxyiminoacetamido]-3-[1-(carboxymethyl)pyrrolidinio]methyl-3-cephem-4-carboxylate] | 17 (≈ 32.4 µM) |  | 0.23 (≈ 0.438 µM) |  | 0.14 (≈ 0.267 µM) | 6.5 (≈ 12.4 µM) |  | 5.1 (≈ 9.72 µM) | 0.02 (≈ 0.0381 µM) |  | 
 | CO/N=C(\C(=O)NC1C(=O)N2C(C(=O)[O-])=C(C[N+]3(CCO)CCCC3)CSC12)c1csc(N)n1 (stereo not drawn) [Example 17] | 4.1 (≈ 8.03 µM) |  | 0.15 (≈ 0.294 µM) | 0.057 (≈ 0.112 µM) | 0.2 (≈ 0.392 µM) | 1.6 (≈ 3.13 µM) |  | 4.1 (≈ 8.03 µM) |  |  | 
 | C#CCO/N=C(\C(=O)NC1C(=O)N2C(C(=O)[O-])=C(C[N+]3(C)CCCC3)CSC12)c1csc(N)n1 (stereo not drawn) [Example 18, 7-[(Z)-2-(2-Aminothiazol-4-yl)-2-propargyloxyiminoacetamido]-3-(1-methyl-1-pyrrolidiniomethyl)-3-cephem-4-carboxylate] | 2.2 (≈ 4.36 µM) |  | 0.32 (≈ 0.634 µM) | 0.061 (≈ 0.121 µM) |  | 0.77 (≈ 1.53 µM) | 0.36 (≈ 0.713 µM) | 4 (≈ 7.93 µM) |  |  | 
0.27 (≈ 0.546 µM) | CO/N=C(\C(=O)NC1C(=O)N2C(C(=O)[O-])=C(C[N+]3(C)CCCC3C)CS[C@H]12)c1csc(N)n1 (stereo partly drawn) [Example 19, 7-[(Z)-2-(2-Aminothiazol-4-yl)-2-methoxyiminoacetamido]-3-(1,2-dimethylpyrrolidinio)methyl-3-cephem-4-carboxylate] | 3.8 (≈ 7.68 µM) |  |  | 0.078 (≈ 0.158 µM) |  | 1.4 (≈ 2.83 µM) | 0.27 (≈ 0.546 µM) | 6 (≈ 12.1 µM) |  |  | 
0.25 (≈ 0.488 µM) | CO/N=C(\C(=O)NC1C(=O)N2C(C(=O)[O-])=C(C[N+]3(C)CCSCC3)CS[C@H]12)c1csc(N)n1 (stereo partly drawn) [Example 20, 7-[(Z)-2-(2-Aminothiazol-4-yl)-2-methoxyiminoacetamido]-3-(4-methylthiomorpholinio)methyl-3-cephem-4-carboxylate] | 4.1 (≈ 8 µM) |  |  | 0.064 (≈ 0.125 µM) |  | 1.2 (≈ 2.34 µM) | 0.25 (≈ 0.488 µM) | 3.7 (≈ 7.22 µM) |  |  | 
 | C=CC[N+]1(CC2=C(C(=O)[O-])N3C(=O)C(NC(=O)/C(=N\OC)c4csc(N)n4)[C@H]3SC2)CCCC1 (stereo partly drawn) [Example 21, 7-[(Z)-2-(2-Aminothiazol-4-yl)-2-methoxyiminoacetamido]-3-(N-allylpyrrolidinio)methyl-3-cephem-4-carboxylate] | 2.9 (≈ 5.72 µM) |  | 0.15 (≈ 0.296 µM) | 0.045 (≈ 0.0888 µM) |  |  | 0.18 (≈ 0.355 µM) | 6.5 (≈ 12.8 µM) |  | 1.1 (≈ 2.17 µM) | 

Structure (SMILES) | MIC [1, 8] [µg/mL] | MIC (PCresistant S. aureus; [5]) [µg/mL] | MIC (P. aeruginosa) [µg/mL] | MIC [1] [µg/mL] | MIC [2, 6] [µg/mL] | MIC [3] [µg/mL] | MIC [4, 7] [µg/mL] | MIC ([3]; Gn-II, 5 strains) [µg/mL] | MIC (P. aeruginosa; [9]) [µg/mL] | MIC [2] [µg/mL] | MIC [4, 10] [µg/mL] | MIC (PCresistant S. aureus) [µg/mL]
CO/N=C(\C(=O)NC1C(=O)N2C(C(=O)[O-])=C(C[N+]3(C)CCN(C)CC3)CS[C@H]12)c1csc(N)n1 (stereo partly drawn) [Example 5, 7-[(Z)-2-(2-Aminothiazol-4-yl)-2-methoxyiminoacetamido]-3-(1,4-dimethyl-1-piperazinio)methyl-3-cephem-4-carboxylate] | 0.12 (≈ 0.235 µM) | 4.7 (≈ 9.22 µM) | 3.6 (≈ 7.06 µM) |  | 0.057 (≈ 0.112 µM) |  | 2.3 (≈ 4.51 µM) | 0.78 (≈ 1.53 µM) |  |  |  | 
CC[N+]1(CC2=C(C(=O)[O-])N3C(=O)C(NC(=O)/C(=N\OC)c4csc(N)n4)[C@H]3SC2)CCCC1 (stereo partly drawn) [Example 10, 7-[(Z)-2-(2-Aminothiazol-4-yl)-2-methoxyiminoacetamido]-3-(1-ethylpyrrolidinio)methyl-3-cephem-4-carboxylate] | 0.13 (≈ 0.263 µM) |  |  |  |  |  |  | 0.13 (≈ 0.263 µM) | 3.1 (≈ 6.27 µM) | 0.037 (≈ 0.0748 µM) | 1 (≈ 2.02 µM) | 2 (≈ 4.04 µM)
